Test: xn = mol fraction of the nth substance listed, in the solute-free solvent

Nc1cc(-c2ccncc2)c[nH]c1=O + CCO + O
solubility (g/100 g solution)
Details	278.15 K	283.15 K	288.15 K	293.15 K	298.15 K	303.15 K	308.15 K	313.15 K	318.15 K	323.15 K
x2 = 0.04165	0.00114	0.00134	0.00159	0.00187	0.00218	0.00251	0.00288	0.00327	0.00372	0.00424
x2 = 0.08908	0.00176	0.00207	0.00246	0.00288	0.00334	0.00384	0.0044	0.00498	0.00565	0.00642
x2 = 0.1436	0.00254	0.00304	0.00354	0.00413	0.00483	0.00549	0.00631	0.00722	0.00814	0.00941
x2 = 0.2068	0.00365	0.00427	0.00505	0.00593	0.00696	0.00785	0.009	0.0101	0.0116	0.0132
x2 = 0.2812	0.00514	0.00605	0.00709	0.0083	0.00956	0.0109	0.0125	0.014	0.0158	0.0179
x2 = 0.3698	0.0062	0.00747	0.00879	0.0103	0.0119	0.0137	0.0156	0.0178	0.0203	0.023
x2 = 0.4772	0.00811	0.00922	0.0108	0.0129	0.0146	0.0167	0.0193	0.0219	0.0247	0.0282
x2 = 0.6101	0.00938	0.0112	0.013	0.0153	0.0176	0.0202	0.0231	0.0259	0.029	0.033
x2 = 0.7788	0.0106	0.0125	0.0148	0.0174	0.0202	0.0229	0.026	0.0294	0.0329	0.0368

Nc1ncc(Br)nc1Br + OCCO + O
solubility (g/100 g solution)
Details	278.15 K	283.15 K	288.15 K	293.15 K	298.15 K	303.15 K	308.15 K	313.15 K	318.15 K	323.15 K
x2 = 0.03125	0.00637	0.0078	0.00922	0.0109	0.0127	0.0144	0.0164	0.0186	0.0208	0.0231
x2 = 0.06767	0.0106	0.0129	0.0152	0.018	0.0209	0.0235	0.0267	0.0302	0.0336	0.0373
x2 = 0.1107	0.0164	0.02	0.0235	0.0276	0.032	0.036	0.0408	0.0459	0.0511	0.0566
x2 = 0.1622	0.0238	0.0288	0.0338	0.0398	0.046	0.0518	0.0585	0.0657	0.0731	0.0809
x2 = 0.225	0.0307	0.0375	0.0446	0.0526	0.0606	0.0684	0.0774	0.0866	0.0965	0.108
x2 = 0.3034	0.0394	0.0471	0.0562	0.0663	0.0766	0.0874	0.0983	0.111	0.124	0.138
x2 = 0.4038	0.0467	0.0558	0.0667	0.0788	0.0911	0.104	0.118	0.133	0.148	0.164
x2 = 0.5373	0.0508	0.0614	0.0739	0.0875	0.103	0.116	0.132	0.148	0.165	0.184
x2 = 0.7232	0.0528	0.0647	0.077	0.0912	0.106	0.12	0.137	0.154	0.173	0.194

— the CheMixHub drug solubility set
